These results are taken from patent publication US11130769B2 (Prelude Therapeutics Incorporated, priority 2018, dated 2021).

Each structure is given as a SMILES string. Where two headings read alike, the source gives them in different places.

One assay relates to H929 cells. Description: Cell viability assay (H929 10 FBS). The class given is cell-based. The note with it: Homo sapiens, NCI-H929, 24 hours, read-out: H929_10FBS IC50. As to the method: Cell Viability Assay (H929 10 FBS)
Dispense 10 μL aliquot of prepared H929 cells (1:1 ratio of cells:Trypan Blue (#1450013, Bio-Rad)) onto cell counting slide (#145-0011, Bio-Rad) and obtain cell density and cell viability using cell counter (TC20, Bio-Rad). Remove appropriate volume of resuspended cells from culture flask to accommodate 4000 cells/well @ 10 μL/well. Transfer H929 cells to 50 mL conical (#430290, Corning). Spin down at 1000 rpm for 5 min using tabletop centrifuge (SPINCHRON 15, Beckman). Discard supernatant and resuspend cell pellet in modified RPMI 1640 (#10-040-CV, Corning) cell culture media containing 10% FBS (F2422-500 ML, Sigma), sodium pyruvate (100 mM) (#25-000-CL, Corning), HEPES buffer (1 M) (#25-060-CL, Corning) and glucose (200 g/L) (A24940-01, Gibco) to a cell density of 400,000 cells/mL. Dispense 10 μL of resuspended H929 cells per well in 384-well small volume TC treated plate (#784080, Greiner Bio-one) using standard cassette (#50950372, Thermo Scientific) on Multi-drop Combi (#5840310, Thermo Scientific) in laminar flow cabinet. Dispense compounds onto plates using digital liquid dispenser (D300E, Tecan). Incubate plates in humidified tissue culture incubator @ 37° C. for 24 hours. Add 10 μL of prepared CellTiTer-Glo® detection buffer (G7570, Promega) or ATPlite 1 Step detection reagent (#6016731, Perkin Elmer) to each well of 384-well plate using small tube cassette (#24073295, Thermo Scientific) on Combi multi drop, incubate @ RT for 30-60 min. Read plates with microplate reader (PheraStar, BMG Labtech) using 384 well luminescence mode.

The next assay deals with MCL-1 (Homo sapiens (Human), UniProt Q07820). Description: Cell free Mcl-1:Bim affinity assay (fluorescence polarization competition). In kind it is binding. The note with it: 15 nM MCL-1, 5 nM FITC-Bim, 1 hour at room temperature, read-out: BIM_Ki. The protocol: The binding affinity of each compound was measured via a fluorescence polarization competition assay, in which the compound competes for the same binding site with the ligand, and thus leads to a dose-dependent anisotropy reduction. The tracer ligand utilized was a fluorescein isothiocyanate labelled peptide (FITC-[…]) derived from Bim (GenScript).
The assay was carried out in black half-area 96-well NBS plate (Corning), containing 15 nM of MCL-1 (BPS Bioscience), 5 nM of FITC-Bim and 3-fold serial diluted test compounds in a total volume of 50 μL of assay buffer (20 mM HEPES, 50 mM NaCl, 0.002% Tween 20, 1 mM TCEP, and 1% DMSO). The reaction plate was incubated for 1 hour at room temperature. The change of anisotropy is measured with an Envision multimode plate reader (PerkinElmer) at emission wavelength 535 nm. Fluorescence polarization was calculated in mP unit and the percentage inhibition was calculated by % inhibition=100×(mPDMSO−mP)/(mPDMSO−mPPC), in which mPDMSO is the DMSO control, and mPpc is the positive control. IC50 values were determined from a 10-point dose response curve by fitting the percent inhibition against compound concentration using the GraphPad Prism software. The inhibition constant Ki was subsequently calculated according to the Nikolovska-Coleska's equation (Anal. Biochem., 2004, 332, 261),
[formula] • where [I]50 is the concentration of the free inhibitor at 50% inhibition, [L]50 is the concentration of the free labeled ligand at 50% inhibition, [P]0 is the concentration of the free protein at 0% inhibition, and Kd is the dissociation constant of the protein-ligand complex. See Table F. Caspase 3/7 Activity Assay
Background: Polarisation of emitted light reports the rotation of a fluorescent probe.

What is called IC50 is the midpoint of a concentration-inhibition curve.

Chain of MCL-1 (Q07820 whole entry): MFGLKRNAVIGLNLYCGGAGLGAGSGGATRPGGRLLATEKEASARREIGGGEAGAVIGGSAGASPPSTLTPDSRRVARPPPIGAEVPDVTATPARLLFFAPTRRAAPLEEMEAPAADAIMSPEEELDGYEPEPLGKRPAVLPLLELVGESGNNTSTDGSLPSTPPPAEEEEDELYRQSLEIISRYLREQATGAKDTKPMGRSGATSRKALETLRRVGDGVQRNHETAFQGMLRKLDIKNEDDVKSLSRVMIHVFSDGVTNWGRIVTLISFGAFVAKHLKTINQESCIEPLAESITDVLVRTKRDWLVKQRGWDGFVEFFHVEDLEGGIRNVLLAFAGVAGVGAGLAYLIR

On to `CC(=O)NS(=O)(=O)c1ccc2c(c1)N(CC1C[C@@H](C)O[C@@H](C)C1)CC1(CCCc3cc(Cl)ccc31)CO2` (mixture of isomers) [Example 8, N-[6′-Chloro-5-[[rac-(2S,6R)-2,6-dimethyltetrahydropyran-4-yl]methyl]spiro[2,4-dihydro-1,5-benzoxazepine-3,1′-tetralin]-7-yl]sulfonylacetamide], for which, in the assay on H929 cells, the concentration for half-maximal inhibition (IC50) is greater than 1000 nM. For the same compound, on MCL-1 (numeric values), the Ki stood at 424 nM.

Take `O=C(CCc1ccncc1)NS(=O)(=O)c1ccc2c(c1)N(CC1CCC1)C[C@@]1(CCCc3cc(Cl)ccc31)CO2` (racemic) [Example 20, 3-Pyridin-4-yl-N-[rac-(3S)-6′-chloro-5-(cyclobutylmethyl)spiro[2,4-dihydro-1,5-benzoxazepine-3,1′-tetralin]-7-yl]sulfonyl-propanamide]: the IC50 in the assay with H929 cells was greater than 1000 nM. For the same compound, the Ki on MCL-1 (numeric values) was 21.8 nM.

On to `O=C(NS(=O)(=O)c1ccc2c(c1)N(CC1CCC1)C[C@@]1(CCCc3cc(Cl)ccc31)CO2)OCc1ccccc1` (stereo in doubt) [Example 14, Benzyl N-[6′-chloro-5-(cyclobutylmethyl)spiro[2,4-dihydro-1,5-benzoxazepine-3,1′-tetralin]-7-yl]sulfonylcarbamate], for which the Ki at MCL-1 (numeric values) is 222 nM.

As to `CN1C/C=C/[C@H](OC(=O)N2CCN3CCOCC3C2)[C@@H]2CC[C@H]2CN2C[C@@]3(CCCc4cc(Cl)ccc43)COc3ccc(cc32)S(=O)(=O)NC(=O)C1(C)C` (stereo in doubt) [Example 208, [(3R,6R,7S,8E,22S)-6′-Chloro-11,12,12-trimethyl-13,15,15-trioxo-spiro[20-oxa-15-thia-1,11,14-triazatetracyclo[14.7.2.03,6.019,24]pentacosa-8,16,18,24-tetraene-22,1′-tetralin]-7-yl] (9aS)-3,4,6,7,9,9a-hexahydro-1H-pyrazino[2,1-c][1,4]oxazine-8-carboxylate], in the assay on H929 cells, the IC50 was less than 500 nM. For the same compound, on MCL-1 (class symbols), the Ki was 1 to 100 nM.

As for `CC(=O)NS(=O)(=O)c1ccc2c(c1)N(CC1CCC1)CC1(CCCc3cc(Cl)ccc31)CO2` (centres unmarked) [Example 1, N-[6′-Chloro-5-(cyclobutylmethyl)spiro[2,4-dihydro-1,5-benzoxazepine-3,1′-tetralin]-7-yl]sulfonylacetamide], the IC50 with H929 cells was greater than 1000 nM. Moreover, at MCL-1 (numeric values), the Ki came out at 45.6 nM.

Consider `CC(=O)NS(=O)(=O)c1ccc2c(c1)N(CC1CC1)CC1(CCCc3cc(Cl)ccc31)CO2` (centres unmarked) [Example 2, N-[6′-Chloro-5-(cyclopropylmethyl)spiro[2,4-dihydro-1,5-benzoxazepine-3,1′-tetralin]-7-yl]sulfonylacetamide], for which, in the assay with H929 cells, the IC50 was greater than 1000 nM. Also, the Ki on MCL-1 (numeric values) was 179 nM.

For `CC(=O)NS(=O)(=O)c1ccc2c(c1)N(CC1CCCCC1)CC1(CCCc3cc(Cl)ccc31)CO2` (centres unmarked) [Example 3, N-[6′-Chloro-5-(cyclohexylmethyl)spiro[2,4-dihydro-1,5-benzoxazepine-3,1′-tetralin]-7-yl]sulfonylacetamide], the 50% inhibitory concentration (IC50) in the assay on H929 cells was greater than 1000 nM. For the same compound, the Ki at MCL-1 (numeric values) was determined as 143 nM.

Turning to `CC(=O)NS(=O)(=O)c1ccc2c(c1)N(Cc1ccccc1)CC1(CCCc3cc(Cl)ccc31)CO2` (centres unmarked) [Example 4, N-(5-Benzyl-6′-chloro-spiro[2,4-dihydro-1,5-benzoxazepine-3,1′-tetralin]-7-yl)sulfonylacetamide], in the assay with H929 cells, the concentration for half-maximal inhibition (IC50) was greater than 1000 nM. Further, the Ki on MCL-1 (numeric values) was found to be 207 nM.

For the compound `O=C(Cc1ccccc1)NS(=O)(=O)c1ccc2c(c1)N(CC1CCC1)CC1(CCCc3cc(Cl)ccc31)CO2` (centres unmarked) [Example 5, N-[6′-Chloro-5-(cyclobutylmethyl)spiro[2,4-dihydro-1,5-benzoxazepine-3,1′-tetralin]-7-yl]sulfonyl-2-phenyl-acetamide], the 50% inhibitory concentration (IC50) in the assay with H929 cells was greater than 1000 nM. For the same compound, the Ki on MCL-1 (numeric values) stood at 37.3 nM.

As for `CC(C)C(=O)NS(=O)(=O)c1ccc2c(c1)N(CC1CCC1)CC1(CCCc3cc(Cl)ccc31)CO2` (centres unmarked) [Example 6, N-[6′-Chloro-5-(cyclobutylmethyl)spiro[2,4-dihydro-1,5-benzoxazepine-3,1′-tetralin]-7-yl]sulfonyl-2-methyl-propanamide], in the assay on H929 cells, the IC50 was greater than 1000 nM. In addition, at MCL-1 (numeric values), the Ki was 35.7 nM.

As for `O=C(NS(=O)(=O)c1ccc2c(c1)N(CC1CCC1)CC1(CCCc3cc(Cl)ccc31)CO2)c1ccc(Cl)cc1` (centres unmarked) [Example 7, 4-Chloro-N-[6′-chloro-5-(cyclobutylmethyl)spiro[2,4-dihydro-1,5-benzoxazepine-3,1′-tetralin]-7-yl]sulfonyl-benzamide], at MCL-1 (numeric values), the Ki was found to be 227 nM.

As to `CC(=O)NS(=O)(=O)c1ccc2c(c1)N(Cc1cnn(C)c1)CC1(CCCc3cc(Cl)ccc31)CO2` (centres unmarked) [Example 9, N-[6′-Chloro-5-[(1-methylpyrazol-4-yl)methyl]spiro[2,4-dihydro-1,5-benzoxazepine-3,1′-tetralin]-7-yl]sulfonylacetamide], the half-maximal inhibitory concentration (IC50) in the assay with H929 cells was greater than 1000 nM. Moreover, the Ki on MCL-1 (numeric values) worked out at 1640 nM.

Take `CO[C@H]1/C=C/CN2CCC[C@H]2C(=O)NS(=O)(=O)c2ccc3c(c2)N(C[C@@H]2CC[C@H]21)C[C@@]1(CCCc2cc(Cl)ccc21)CO3` [Example 100]: the IC50 with H929 cells is greater than 1000 nM.

In the case of `CO[C@@H]1/C=C/CN(C)C(=O)NS(=O)(=O)c2ccc3c(c2)N(C[C@@H]2CC[C@H]21)C[C@@]1(CCCc2cc(Cl)ccc21)CO3` [Example 108, (3R,6R,7R,8E,21S)-6′-Chloro-7-methoxy-11-methyl-14,14-dioxo-spiro[19-oxa-14-thia-1,11,13-triazatetracyclo[3.7.2.03,6.018,23]tetracosa-8,15,17,23-tetraene-21,1′-tetralin]-12-one], in the assay with H929 cells, the IC50 was greater than 1000 nM.

Regarding `CN(C)C[C@H]1CCCN1C(=O)O[C@H]1/C=C/COC(C)(C)C(=O)NS(=O)(=O)c2ccc3c(c2)N(C[C@@H]2CC[C@H]21)C[C@@]1(CCCc2cc(Cl)ccc21)CO3` [Example 169], the half-maximal inhibitory concentration (IC50) in the assay with H929 cells was less than 500 nM.

On to `CN1C/C=C/[C@H](OC(=O)NC2CC2)[C@@H]2CC[C@H]2CN2C[C@@]3(CCCc4cc(Cl)ccc43)COc3ccc(cc32)S(=O)(=O)NC(=O)C1(C)C` [Example 206], for which, in the assay on H929 cells, the IC50 is less than 500 nM.

As for `CCOC(=O)N(C)[C@@H]1/C=C/COC(C)(C)C(=O)NS(=O)(=O)c2ccc3c(c2)N(C[C@@H]2CC[C@H]21)C[C@@]1(CCCc2cc(Cl)ccc21)CO3` [Example 252], the IC50 with H929 cells was greater than 1000 nM.

For `CN(C)CCN(C)C(=O)O[C@H]1/C=C/COC(C)(C)C(=O)NS(=O)(=O)c2ccc3c(c2)N(C[C@@H]2CC[C@H]21)C[C@@]1(CCOc2cc(Cl)ccc21)CO3` [Example 307], the IC50 with H929 cells was less than 500 nM.

As for `CCO[C@@H]1CCN(C(=O)O[C@H]2/C=C/COC(C)(C)C(=O)NS(=O)(=O)c3ccc4c(c3)N(C[C@@H]3CC[C@H]32)C[C@@]2(CCOc3cc(Cl)ccc32)CO4)C1` [Example 308], the IC50 in the assay with H929 cells is less than 500 nM.

`COC1CN(C(=O)O[C@H]2/C=C/COC(C)(C)C(=O)NS(=O)(=O)c3ccc4c(c3)N(C[C@@H]3CC[C@H]32)C[C@@]2(CCOc3cc(Cl)ccc32)CO4)C1` [Example 309]: the IC50 with H929 cells is less than 1000 nM.

`CN(C)[C@@H]1CCN(C(=O)O[C@H]2/C=C/COC(C)(C)C(=O)NS(=O)(=O)c3ccc4c(c3)N(C[C@@H]3CC[C@H]32)C[C@@]2(CCOc3cc(Cl)ccc32)CO4)C1` [Example 310]: in the assay on H929 cells, the IC50 was less than 500 nM.

In the case of `CN(C)C1CN(C(=O)O[C@H]2/C=C/COC(C)(C)C(=O)NS(=O)(=O)c3ccc4c(c3)N(C[C@@H]3CC[C@H]32)C[C@@]2(CCOc3cc(Cl)ccc32)CO4)C1` [Example 311], the IC50 with H929 cells is less than 500 nM.
